These results are taken from US20260167620A1, “MULTIFUNCTIONAL COMPOUND CAPABLE OF DEGRADING BTK KINASE, AND COMPOSITION AND USE” (HANGZHOU HEALZEN THERAPEUTICS CO., LTD., priority 2021, published 2026).

A value given as a limit tells only on which side of the number the result lay.

T1 sequence (Q06187 whole entry): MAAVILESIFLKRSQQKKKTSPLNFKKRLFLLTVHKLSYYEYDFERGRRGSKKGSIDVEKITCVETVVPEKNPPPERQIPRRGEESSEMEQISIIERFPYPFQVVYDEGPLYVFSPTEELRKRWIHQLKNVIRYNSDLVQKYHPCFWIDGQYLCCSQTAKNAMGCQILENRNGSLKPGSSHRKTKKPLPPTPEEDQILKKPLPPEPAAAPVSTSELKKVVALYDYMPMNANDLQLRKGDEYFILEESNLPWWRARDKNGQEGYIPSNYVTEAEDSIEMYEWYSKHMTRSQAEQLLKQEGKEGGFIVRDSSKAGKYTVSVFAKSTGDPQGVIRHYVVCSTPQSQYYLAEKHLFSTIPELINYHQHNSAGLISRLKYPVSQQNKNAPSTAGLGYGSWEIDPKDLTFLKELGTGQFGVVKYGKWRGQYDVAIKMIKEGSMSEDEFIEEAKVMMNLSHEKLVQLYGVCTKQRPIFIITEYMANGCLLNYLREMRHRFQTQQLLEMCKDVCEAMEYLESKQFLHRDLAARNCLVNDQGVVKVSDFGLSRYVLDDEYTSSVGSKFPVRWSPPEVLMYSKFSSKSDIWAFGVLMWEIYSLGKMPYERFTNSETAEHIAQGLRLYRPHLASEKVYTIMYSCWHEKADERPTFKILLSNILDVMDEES

The assay addresses T1, BTK (Homo sapiens, UniProt Q06187).
T1 construct: endogenous in cells; host or cells: Mino cells
Description: BTK degradation activity test in Mino cells (Westernblot or Elisa). Type of assay: cell-based. Conditions: 24-72 h incubation. On the procedure:
The Mino cell line cells are 0.5˜1 million/well in 6-well plates. The compounds are diluted to different concentrations, added to the plate, and after 24-72 h of incubation, the cells are collected. After the cells were lysed, the total protein concentration in each well was determined with a BCA kit. The amount of BTK is determined using the Westernblot or Elisa method.
`NC(=O)c1nnc(N2CCC[C@@H](O)C2)nc1Nc1ccc(C2CCN(CC3CCN(c4ccc5c(c4)C(=O)N(C4CCC(=O)NC4=O)C5=O)C3)CC2)c(F)c1` (stereo partly drawn) [Compound 067, 5-((4-(1-((1-(2-(2,6-dioxopiperidin-3-yl)-1,3-dioxoisoindolin-5-yl)pyrrolidin-3-yl)methyl)piperidin-4-yl)-3-fluorophenyl)amino)-3-((R)-3-hydroxypiperidin-1-yl)-1,2,4-triazine-6-carboxamide]: the half-maximal degradation concentration (DC50) was less than 10 nM.
With `CC(C)(C)C(=O)OCN1C(=O)CCC(N2C(=O)c3ccc(N4CCC(CN5CCC(c6ccc(Nc7nc(N8CCCCC8)nnc7C(N)=O)cc6F)CC5)C4)cc3C2=O)C1=O` (centres unmarked) [Compound 068, (3-(5-(3-((4-(4-((6-carbamoyl-3-(piperidin-1-yl)-1,2,4-triazin-5-yl)amino)-2-fluorophenyl)piperidin-1-yl)methyl)pyrrolidin-1-yl)-1,3-dioxoisoindolin-2-yl)-2,6-dioxopiperidin-1-yl) methyl pivalate], the DC50 is less than 10 nM.
Under `CC(OC(=O)C(C)(C)C)N1C(=O)CCC(N2C(=O)c3ccc(N4CCC(CN5CCC(c6ccc(Nc7nc(N8CCCCC8)nnc7C(N)=O)cc6)CC5)C4)cc3C2=O)C1=O` (centres unmarked) [Compound 069, 1-(3-(5-(3-((4-(4-((6-carbamoyl-3-(piperidin-1-yl)-1,2,4-triazin-5-yl)amino)phenyl)piperidin-1-yl)methyl)pyrrolidin-1-yl)-1,3-dioxoisoindolin-2-yl)-2,6-dioxopiperidin-1-yl) ethyl pivalate] stands less than 10 nM; under `CC(OC(=O)C(C)(C)C)N1C(=O)CCC(N2C(=O)c3ccc(N4CCC(CN5CCC(c6ccc(Nc7nc(N8CCN(C)CC8)nnc7C(N)=O)cc6)CC5)C4)cc3C2=O)C1=O` (centres unmarked) [Compound 070, 1-(3-(5-(3-((4-(4-((6-carbamoyl-3-(4-methylpiperazin-1-yl)-1,2,4-triazin-5-yl)amino)phenyl)piperidin-1-yl)methyl)pyrrolidin-1-yl)-1,3-dioxoisoindolin-2-yl)-2,6-dioxopiperidin-1-yl) ethyl pivalate], less than 10 nM; under `CC(OC(=O)C(C)(C)C)N1C(=O)CCC(N2C(=O)c3ccc(N4CCC(CN5CCN(c6ccc(Nc7nc(N8CCCCC8)nnc7C(N)=O)cc6F)CC5)C4)cc3C2=O)C1=O` (centres unmarked) [Compound 071, 1-(3-(5-(3-((4-(4-((6-carbamoyl-3-(piperidin-1-yl)-1,2,4-triazin-5-yl)amino)-2-fluorophenyl)piperazin-1-yl)methyl)pyrrolidin-1-yl)-1,3-dioxoisoindolin-2-yl)-2,6-dioxopiperidin-1-yl) ethyl pivalate], less than 10 nM.
As to `CC(OC(=O)C(C)(C)C)N1C(=O)CCN(c2ccc(N3CCN(CC4CCN(c5ccc(Nc6nc(N7CCCCC7)nnc6C(N)=O)cc5F)CC4)CC3)cc2)C1=O` (centres unmarked) [Compound 072, 1-(3-(4-(4-((1-(4-((6-carbamoyl-3-(piperidin-1-yl)-1,2,4-triazin-5-yl)amino)-2-fluorophenyl)piperidin-4-yl)methyl)piperazin-1-yl)phenyl)-2,6-dioxotetrahydropyrimidin-1(2H)-yl) ethyl pivalate], the half-maximal degradation concentration (DC50) was less than 10 nM.
`CC(C)[C@H](N)C(=O)OCN1C(=O)CCC(N2C(=O)c3ccc(N4CCC(CN5CCC(c6ccc(Nc7nc(N8CCCCC8)nnc7C(N)=O)cc6)CC5)C4)cc3C2=O)C1=O` (stereo partly drawn) [Compound 073, (3-(5-(3-((4-(4-((6-carbamoyl-3-(piperidin-1-yl)-1,2,4-triazin-5-yl)amino)phenyl)piperidin-1-yl)methyl)pyrrolidin-1-yl)-1,3-dioxoisoindolin-2-yl)-2,6-dioxopiperidin-1-yl) methyl L-valinate] came in with a DC50 of less than 10 nM.
`CC(C)[C@H](N)C(=O)OCN1C(=O)CCC(N2C(=O)c3ccc(N4CCC(CN5CCN(c6ccc(Nc7nc(N8CCCCC8)nnc7C(N)=O)cc6F)CC5)C4)cc3C2=O)C1=O` (stereo partly drawn) [Compound 074, (3-(5-(3-((4-(4-((6-carbamoyl-3-(piperidin-1-yl)-1,2,4-triazin-5-yl)amino)-2-fluorophenyl)piperazin-1-yl)methyl)pyrrolidin-1-yl)-1,3-dioxoisoindolin-2-yl)-2,6-dioxopiperidin-1-yl) methyl L-valinate]: the DC50 is less than 10 nM.
Under `NC(=O)c1nnc(N2CCCCC2)nc1Nc1ccc(N2CCN(CC3CCN(c4ccc(N5CCC(=O)NC5=O)cc4)CC3)CC2)c(F)c1` [Compound 080, 5-((4-(4-((1-(4-(2,4-dioxotetrahydropyrimidin-1(2H)-yl)phenyl)piperidin-4-yl)methyl)piperazin-1-yl)-3-fluorophenyl)amino)-3-(piperidin-1-yl)-1,2,4-triazine-6-carboxamide] stands less than 10 nM.
Under `NC(=O)c1nnc(N2CCCCC2)nc1Nc1ccc(N2CCC(CN3CCN(c4ccc(-c5ccc(=O)[nH]n5)cc4C(F)(F)F)CC3)CC2)c(F)c1` [Compound 089, 5-((3-fluoro-4-(4-((4-(4-(6-oxo-1,6-dihydropyridazin-3-yl)-2-(trifluoromethyl)phenyl)piperazin-1-yl)methyl)piperidin-1-yl)phenyl)amino)-3-(piperidin-1-yl)-1,2,4-triazine-6-carboxamide] stands less than 10 nM; under `CC(=O)N[C@@H]1CCCN(c2nnc(C(N)=O)c(Nc3ccc(N4CCN(CC5CCN(c6ccc(N7CCC(=O)NC7=O)cc6)CC5)CC4)c(F)c3)n2)C1` [Compound 091, (R)-3-(3-acetamidopiperidin-1-yl)-5-((4-(4-((1-(4-(2,4-dioxotetrahydropyrimidin-1(2H)-yl)phenyl)piperidin-4-yl)methyl)piperazin-1-yl)-3-fluorophenyl)amino)-1,2,4-triazine-6-carboxamide], less than 10 nM.
As for `CC(=O)N[C@@H]1CCCN(c2nnc(C(N)=O)c(Nc3ccc(N4CCN(CC5CCN(c6ccc(C(=O)NC7CCC(=O)NC7=O)c(F)c6)CC5)CC4)c(F)c3)n2)C1` (stereo partly drawn) [Compound 093, 3-((R)-3-acetamidopiperidin-1-yl)-5-((4-(4-((1-(4-((2,6-dioxopiperidin-3-yl)carbamoyl)-3-fluorophenyl)piperidin-4-yl)methyl)piperazin-1-yl)-3-fluorophenyl)amino)-1,2,4-triazine-6-carboxamide], the figure is less than 10 nM; as for `CC(=O)N[C@@H]1CCCN(c2nnc(C(N)=O)c(Nc3ccc(N4CCN(CC5CCN(c6ncc(-c7ccc(=O)[nH]n7)cc6C(F)(F)F)CC5)CC4)c(F)c3)n2)C1` [Compound 094, (R)-3-(3-acetamidopiperidin-1-yl)-5-((3-fluoro-4-(4-((1-(5-(6-oxo-1,6-dihydropyridazin-3-yl)-3-(trifluoromethyl)pyridin-2-yl)piperidin-4-yl)methyl)piperazin-1-yl)phenyl)amino)-1,2,4-triazine-6-carboxamide], less than 10 nM; as for `CC(=O)N[C@@H]1CCCN(c2nnc(C(N)=O)c(Nc3ccc(N4CCN(CC5CCN(c6ccc(-c7ccc(=O)[nH]n7)cc6C(F)(F)F)CC5)CC4)c(F)c3)n2)C1` [Compound 095, (R)-3-(3-acetamidopiperidin-1-yl)-5-((3-fluoro-4-(4-((1-(4-(6-oxo-1,6-dihydropyridazin-3-yl)-2-(trifluoromethyl)phenyl)piperidin-4-yl)methyl)piperazin-1-yl)phenyl)amino)-1,2,4-triazine-6-carboxamide], less than 10 nM.

By DC50 is commonly meant the midpoint of the concentration-degradation curve.
